In data set [1] the test system is T.b. brucei (strain 427) bloodstream form parasites. The data set can be described thus: Trypanosoma brucei assay, dose–response (this study). It counts as cell-based. Conditions: for IC50: Trypanosoma brucei, read-out: T. brucei brucei IC50 (μM) This study.
Data set [2] concerns T.b. brucei. More on the design: method as in https://www.pathogenbox.org/. Conditions: ref https://www.pathogenbox.org/, cited from earlier work; for IC50: Table 1, kinetoplastid category, read-out: T. brucei brucei IC50 (μM) Pathogen Box.
In data set [3] the test system is HeLa cells. As to the kind of experiment: HeLa cell assay (cytotoxicity). It counts as cell-based. Conditions: Homo sapiens. As for the experimental part: HeLa cells were cultured in DMEM medium supplemented with 10% fetal bovine serum and antibiotics (penicillin/streptomycin/amphotericin B) at 37 °C in a 5% CO2 incubator. On the day prior to compound addition, cells were plated in 96-well plates at 2 × 10^4 cells per well. Compounds were added to the cells in 3-fold serial dilutions and incubation at 37 °C in a 5% CO2 incubator continued for 48 hours. Twenty μl resazurin reagent (0.5 mM resazurin in phosphate-buffered saline) was added to each well and, after a 2-hour incubation, fluorescence (Exc560/Em590) was measured in a plate reader. Percentage cell viability in drug-treated wells was calculated from the fluorescent readings obtained relative to those in wells containing control, untreated cells. Plots of % cell viability vs. log[compound] were used to determine IC50 values by non-linear regression analysis using GraphPad Prism.

For data set [4], the system named is T.b. brucei (strain 427) bloodstream form parasites. As to the kind of experiment: T.b. brucei single concentration screen (10 μM). The note with it: for viability at 10 µM: Trypanosoma brucei, read-out: T.b.brucei % viability (10 µM); for T.b.brucei % viability (10 µM): single concentration 10 µM, % parasite viability relative to non-treated parasites.
In data set [5] the test system is T.b. brucei. Set-up: method as in PMID 28674055. The note with it: cited from earlier work; for IC50: Table 1, kinetoplastid category of the Pathogen Box, read-out: T. brucei brucei IC50 (μM) Duffy et al.
In data set [6] the test system is M. tuberculosis CTP synthase, PyrG. More on the design: method as in PMID 28475832. Conditions: cited from earlier work.
Setting [7] is: Table 1, kinetoplastid category, 48 hours at 37 °C, resazurin.
Setting [8] is: Table 1, HeLa cells, 48 hours, resazurin, read-out: HeLa IC50.
Where [9] appears, read: HeLa, 48 h, read-out: HeLa IC50 (μM).

Read-outs that look alike come from different tables or passages of the source. A value given as a limit tells only on which side of the number the result lay.

The values below come from publication PMC6301270 (MedChemComm, 2018).

A word on the IC50: it is the concentration needed to halve the response being measured. One may read the viability as a per cent measure of how many cells are alive, often set against a control.

For the compound `NCCN(C(=O)c1ccc(Cl)cc1Cl)c1ccc(OCc2ccc(Cl)cc2)cc1` [Compound 9, NCCN(C(=O)c1ccc(Cl)cc1Cl)c2ccc(OCc3ccc(Cl)cc3)cc2], the IC50 in data set [1] (setting [7]) was 0.49 µM; in data set [2] it was < 0.13 µM; in data set [3] (setting [8]), 7.5 µM. Moreover, the viability at 10 µM in data set [4] came out at 4%.

Take `Cc1ccc(S(=O)(=O)Nc2ccc(CN3CCN(C(=O)c4cccc(C#N)c4)CC3)cc2)cc1` [Compound 11, O=C(N1CCN(CC2=CC=C(NS(=O)(C3=CC=C(C)C=C3)=O)C=C2)CC1)C4=CC(C#N)=CC=C4]: the IC50 in data set [1] (setting [7]) was 0.12 µM; in data set [2], 0.14 µM; in data set [3] (setting [8]), > 25 µM. For the same compound, the viability at 10 µM in data set [4] is 6.6%.

Consider `COc1ccc(C(=N)N)cc1-c1cn(-c2ccc(C(=N)N)cc2)nn1` [Compound 12, COc1ccc(cc1c2cn(nn2)c3ccc(cc3)C(=N)N)C(=N)N], for which the IC50 in data set [1] (setting [7]) was 0.54 µM; in data set [2], 0.25 µM; in data set [3] (setting [8]), > 25 µM. The viability at 10 µM in data set [4] came to 9%.

In the case of `O=C(NCCc1ccn(-c2ccccc2)n1)C1CCCCC1` [Compound 13, O=C(NCCc1ccn(n1)c2ccccc2)C3CCCCC3], the IC50 in data set [1] (setting [7]) is 0.21 µM; in data set [2] it was 0.15 µM; in data set [3] (setting [8]) it was > 25 µM. Further, the viability at 10 µM in data set [4] worked out at 2%.

As to `CS(=O)(=O)c1ccccc1C(=O)N(Cc1ccccc1)c1ccccc1` [Compound 14, CS(=O)(=O)c1ccccc1C(=O)N(Cc2ccccc2)c3ccccc3], the IC50 in data set [1] (setting [7]) is 1.2 µM; in data set [2], 0.56 µM; in data set [3] (setting [8]) it was > 25 µM. Moreover, the viability at 10 µM in data set [4] came to 18%.

Turning to `COc1ccc(C2=NN(C3CCCCCC3)C(=O)[C@@H]3CC=CC[C@H]23)cc1OCCCCOc1ccc(-c2nnn[nH]2)cc1` [Compound 15, COC1=C(OCCCCOC2=CC=C(C3=NNN=N3)C=C2)C=C(C([C@@H]4[C@H]5CC=CC4)=NN(C6CCCCCC6)C5=O)C=C1], the IC50 in data set [1] (48 h) was 0.12 µM; in data set [2], 0.02 µM; in data set [3] (setting [9]), > 25 µM. Also, the viability at 10 µM in data set [4] is 6%.

As to `N=C(N)Nc1ccc(-c2ccc(-c3ccc(N=C(N)N)c(Cl)c3)o2)cc1Cl` [Compound 16, NC(=N)Nc1ccc(cc1Cl)c2oc(cc2)c3ccc(N=C(N)N)c(Cl)c3], the results for the IC50 in data set [1] (setting [7]), in data set [2] and in data set [3] (setting [8]) were 0.65 µM, 0.6 µM and 17 µM, respectively. The viability at 10 µM in data set [4] stood at 1.2%.

With `CCC(=O)Nc1ccccc1C(=O)Nc1ccccn1` [Compound 17, CCC(=O)Nc1ccccc1C(=O)Nc2ccccn2], the IC50 was 0.38 µM in data set [1] (setting [7]), 2.46 µM in data set [2] and > 25 µM in data set [3] (setting [8]). Moreover, in data set [4], the viability at 10 µM was found to be 7%.

Consider `COc1ccc(S(=O)(=O)Nc2ccc(CN3CCN(C(=O)c4cccc(C#N)c4)CC3)cc2)cc1` [Compound 18, O=C(N1CCN(CC2=CC=C(NS(=O)(C3=CC=C(OC)C=C3)=O)C=C2)CC1)C4=CC(C#N)=CC=C4], for which the figures for the IC50 in data set [1] (setting [7]), in data set [2] and in data set [3] (setting [8]) were 0.44 µM, 0.5 µM and > 25 µM, respectively. Besides, the viability at 10 µM in data set [4] is 6.5%.

`CCCCN(CCCC)c1c(C#N)cc(S(=O)(=O)Nc2ccccc2)cc1C#N` [Compound 19, CCCCN(CCCC)c1c(cc(cc1C#N)S(=O)(=O)Nc2ccccc2)C#N]: the IC50 was 1.3 µM in data set [1] (setting [7]), 0.26 µM in data set [2] and > 25 µM in data set [3] (setting [8]). In data set [4], the viability at 10 µM was determined as 6%.

Take `Cc1noc(C)c1COc1cccc(C(=O)N=c2[nH]cccc2C)c1` [Compound 20, Cc1onc(C)c1COc2cccc(c2)C(=O)Nc3ncccc3C]: the IC50 in data set [1] (setting [7]) was 0.62 µM; in data set [2] it was 2.07 µM; in data set [3] (setting [8]), > 25 µM. In addition, the viability at 10 µM in data set [4] is 7%.

With `CO[C@@H](C(=O)N1Cc2[nH]nc(NC(=O)c3ccc(N4CCN(C)CC4)cc3)c2C1)c1ccccc1` [Compound 21, CO[C@@H](C(=O)N1Cc2[nH]nc(NC(=O)c3ccc(cc3)N4CCN(C)CC4)c2C1)c5ccccc5], the figures for the IC50 in data set [1] (setting [7]), in data set [2] and in data set [3] (setting [8]) were 0.3 µM, 1.02 µM and > 25 µM, respectively. Further, the viability at 10 µM in data set [4] turned out to be 4.5%.

In the case of `CNC(=O)C1Cc2ccccc2N1C(=O)Cc1ccc(F)cc1` (stereo not shown) [Compound 22, CNC(=O)C1Cc2ccccc2N1C(=O)Cc3ccc(F)cc3], the IC50 in data set [1] (setting [7]) was 0.71 µM; in data set [2] it was 0.49 µM; in data set [3] (setting [8]), > 25 µM. The viability at 10 µM in data set [4] worked out at 7%.

For the compound `c1ccc(Oc2ccc(-c3cc(C4CCOCC4)[nH]n3)cc2)cc1` [Compound 23, C1CC(CCO1)c2cc(n[nH]2)c3ccc(Oc4ccccc4)cc3], the IC50 in data set [5] is ≥ 1 µM. Besides, the IC50 in data set [2] was 7.58 µM. For the same compound, in data set [4], the viability at 10 µM amounted to 82% and the “T.b.brucei % viability (10 µM)” value is on record as “did not sufficiently reduce cell viability”.

For the compound `Cc1nn2c(=O)c3c([nH]c2c1-c1ccc(Cl)cc1)CCCC3` [Compound 24, Cc1nn2C(=O)C3=C(CCCC3)Nc2c1c4ccc(Cl)cc4], the IC50 in data set [5] is ≥ 1 µM. Besides, the “T.b. brucei activity in words, Pathogen Box” value in data set [2] is reported as “sub-micromolar range”. Further, in data set [4], the viability at 10 µM worked out at 19% and the “T.b.brucei % viability (10 µM)” value is recorded as “did not sufficiently reduce cell viability”.

As to `COc1ccc(C2=NN(C3CCCCCC3)C(=O)C2(C)C)cc1OCCCCOc1ccc(-c2nn[nH]n2)cc1` [Compound 25, COC1=C(OCCCCOC2=CC=C(C3=NNN=N3)C=C2)C=C(C4=NN(C5CCCCCC5)C(C4(C)C)=O)C=C1], the IC50 is 1.7 µM in data set [1] (setting [7]), 0.79 µM in data set [2] and > 25 µM in data set [3] (setting [8]). Moreover, the viability at 10 µM in data set [4] amounted to 8.5%.

Regarding `Cc1nn2c(O)c3c(nc2c1-c1ccc(F)cc1)CCCC3` [Compound 28, Cc1nn2c(O)c3CCCCc3nc2c1c4ccc(F)cc4], the IC50 is 4.6 µM in data set [1] (setting [7]), 1.94 µM in data set [2] and > 25 µM in data set [3] (setting [8]). The viability at 10 µM in data set [4] came to 12%.

Regarding `CC1=Nc2ccc(Cl)cc2C(O)(c2ccc(C)cc2)N1CCN1CCCCC1` (stereo not shown) [Compound 29, CC1=Nc2ccc(Cl)cc2C(O)(N1CCN3CCCCC3)c4ccc(C)cc4], the results for the IC50 in data set [1] (setting [7]), in data set [2] and in data set [3] (setting [8]) were 0.98 µM, 0.98 µM and 15 µM, respectively. Further, the viability at 10 µM in data set [4] amounted to 2%.

As for `c1ccc(Oc2ccc(-c3cc(N4CCNCC4)[nH]n3)cc2)cc1` [Compound 30, C1CN(CCN1)c2cc(n[nH]2)c3ccc(Oc4ccccc4)cc3], the IC50 in data set [1] (setting [7]) is 2.3 µM; in data set [2], 0.99 µM; in data set [3] (setting [8]), 11 µM. Besides, the viability at 10 µM in data set [4] came out at 0.3%.

As to `CN1CCN(S(=O)(=O)c2ccc(-c3ccc4c(Nc5ncc(Cl)cn5)ccnc4c3)cc2)CC1` [Compound 31, CN1CCN(CC1)S(=O)(=O)c2ccc(cc2)c3ccc4c(Nc5ncc(Cl)cn5)ccnc4c3], the half-inhibitory concentration (IC50) is 2.2 µM in data set [1] (setting [7]), 3.78 µM in data set [2] and > 25 µM in data set [3] (setting [8]). Further, the viability at 10 µM in data set [4] was 6.4%.

For the compound `CCOC(=O)c1noc(N)c1-c1ccccc1` [Compound 34, CCOC(=O)c1noc(N)c1c2ccccc2], in data set [1], the “T.b. brucei inhibition in words, this study” value is given as “mid-nanomolar inhibitor”. The IC50 was 0.41 µM in data set [1] (setting [7]), 1.22 µM in data set [2] and > 25 µM in data set [3] (setting [8]). In data set [2], the “T.b. brucei activity in words, Pathogen Box” value is given as “low micromolar range”. Further, the viability at 10 µM in data set [4] turned out to be 12%.

Turning to `O=C(COc1cccc(F)c1)Nc1nc(-c2ccccn2)cs1` [Compound 43, Fc1cccc(OCC(=O)Nc2nc(cs2)c3ccccn3)c1], the half-maximal inhibitory concentration (IC50) in data set [3] (setting [9]) is > 25 µM. In data set [4], the viability at 10 µM turned out to be 3%. Also, the “Inhibition of M. tuberculosis CTP synthase, PyrG” value in data set [6] is on record as “moderate inhibitors”.

`O=C(Nc1ccccc1)c1ccc(-c2cc3ccncc3cc2OC2CCNCC2)s1` [Compound 51, O=C(Nc1ccccc1)c2ccc(s2)c3cc4ccncc4cc3OC5CCNCC5]: in data set [1], the “T.b. brucei inhibition in words, this study” value is listed as “selectively inhibited T.b. brucei, albeit moderately”. The IC50 was found to be 1 µM in data set [1] (Table 2, remaining Pathogen Box, 48 hours at 37 °C, resazurin) and 7.5 µM in data set [3] (Table 2, HeLa cells, 48 hours, resazurin, read-out: HeLa IC50). The Selectivity index in data set [1] (calculated as IC50(HeLa)/IC50(T.bb)) was 7.5. In addition, the “T.b. brucei inhibition in words, Duffy et al.” value in data set [5] is “moderate inhibition”. For the same compound, the viability at 10 µM in data set [4] is 1%.

As to `O=C(Nc1ccc(C(F)(F)F)c(C(F)(F)F)c1)c1cc(Cl)ccc1O` [Compound 66, Oc1ccc(Cl)cc1C(=O)Nc2ccc(c(c2)C(F)(F)F)C(F)(F)F], the “T.b. brucei inhibition in words, Duffy et al.” value in data set [5] is “sub-micromolar inhibitor”. Besides, in data set [4], the viability at 10 µM turned out to be 42%.
